Molecules are shown by their SMILES. The source made the active and inactive calls. The rule behind the calls is not given here.

One may read the Kd as the concentration at which binding is half-saturated.

In this assay the target is Chaperone protein DnaK (Escherichia coli (strain K12)) (UniProt P0A6Y8). The assay can be described thus: binders of DnaK substrate-binding domain, biophysical, NMR, chaperone (AID 1033). The conditions noted are these: Purified DnaK SBD, NMR ligand binding.
Chain of Chaperone protein DnaK (Escherichia coli (strain K12)) (P0A6Y8 whole entry, looked up, the tested form may be a part): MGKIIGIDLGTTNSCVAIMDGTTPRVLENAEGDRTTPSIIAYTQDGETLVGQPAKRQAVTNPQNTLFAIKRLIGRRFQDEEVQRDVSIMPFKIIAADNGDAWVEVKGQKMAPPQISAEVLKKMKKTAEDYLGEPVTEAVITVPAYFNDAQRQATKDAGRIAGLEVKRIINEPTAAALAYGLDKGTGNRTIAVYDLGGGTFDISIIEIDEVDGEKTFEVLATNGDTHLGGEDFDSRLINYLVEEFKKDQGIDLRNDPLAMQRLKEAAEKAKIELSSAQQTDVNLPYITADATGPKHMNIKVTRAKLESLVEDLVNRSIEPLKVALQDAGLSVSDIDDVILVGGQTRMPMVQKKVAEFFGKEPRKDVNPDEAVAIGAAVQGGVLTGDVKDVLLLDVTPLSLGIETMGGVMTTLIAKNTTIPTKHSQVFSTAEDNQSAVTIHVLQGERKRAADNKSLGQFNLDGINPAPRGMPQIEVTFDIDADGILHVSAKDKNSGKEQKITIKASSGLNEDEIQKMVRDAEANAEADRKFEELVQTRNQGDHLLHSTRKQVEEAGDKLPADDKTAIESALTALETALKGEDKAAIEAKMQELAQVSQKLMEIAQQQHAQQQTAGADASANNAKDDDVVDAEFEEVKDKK
Take `Cc1ccc(CN2CCN(C(=O)C3CCC3)CC2)cc1`: the Kd was > 4 mM (inactive).

As for `CCOc1ccc2nc(NS(C)(=O)=O)sc2c1`, the Kd is > 4 mM (inactive).

For the compound `CC(=O)c1ccc(N2C(=O)C(C(C)C)NC2=S)cc1` (configuration not stated), the Kd was > 4 mM (inactive).

`NS(=O)(=O)c1ccc(N=Cc2ccc[nH]2)cc1`: the Kd is > 4 mM (inactive).

Regarding `Cc1cccc(NC(=O)c2ccc(=O)[nH]n2)c1`, the Kd is > 4 mM (inactive).

Consider `O=C(Nc1ccc(Cl)cn1)c1cnn2cccnc12`, for which the Kd is > 4 mM (inactive).

`NC(=O)C1(c2ccccc2)CCOCC1`: the Kd is > 4 mM (inactive).

For `CC(=O)O[C@@H]1CC2C(C)(C)[C@H](O)CC[C@]2(C)C2CC[C@@]3(C)[C@H](c4ccoc4)OC(=O)C4OC43[C@@]21C` (some centres not stated), the Kd was > 4 mM (inactive).

In the case of `O=C1CSC2(CN3CCC2CC3)N1` (configuration not stated), the Kd was > 4 mM (inactive).

In the case of `Cn1cnnc1SCCCNC(=O)Nc1ncccn1`, the Kd is > 4 mM (inactive).

Consider `O=C(O)CCCCCCCC(=O)O`, for which the Kd is > 4 mM (inactive).

Take `c1ccc(-n2cnnc2)nc1`: the Kd was > 4 mM (inactive).

For `COc1ccc2nc(N)sc2c1`, the Kd was > 4 mM (inactive).

For `CCOC(=O)C1CCN(Cc2ccccc2)CC1=O` (configuration not stated), the Kd is > 4 mM (inactive).

Take `NC1CN2CCC1CC2` (configuration not stated): the Kd was > 4 mM (inactive).

With `COc1ncnc(N)c1[N+](=O)[O-]`, the Kd was > 4 mM (inactive).

As to `O=c1[nH]cnc2c1nnn2Cc1ccccc1`, the Kd is > 4 mM (inactive).

On to `O=C(CN1CCOCC1)Nc1cccc(Br)c1`, for which the Kd is > 4 mM (inactive).

As for `Nc1ncnc2c1ncn2CCN1CCCCC1`, the Kd is > 4 mM (inactive).

Consider `O=C(O)CN1C(=O)c2ccc(C(=O)O)cc2C1=O`, for which the Kd is > 4 mM (inactive).

In the case of `Cc1nnc(SCC(=O)Nc2ccccc2)[nH]c1=O`, the Kd is > 4 mM (inactive).

Turning to `NC1CS(=O)(=O)CC1O` (configuration not stated), the Kd is > 4 mM (inactive).

With `Nc1nc(CSc2ncn(-c3ccccc3)n2)cs1`, the Kd was > 4 mM (inactive).

Turning to `O=C(Nn1cnnc1)c1cccc(C(F)(F)F)c1`, the Kd was > 4 mM (inactive).

Turning to `CC(=O)Nc1nnc(-c2ccncc2)s1`, the Kd was > 4 mM (inactive).

As to `CN1CCC(NC(=O)c2c(F)cccc2Cl)CC1`, the Kd is > 4 mM (inactive).

On to `Cc1cc(C)nc(/N=C(/N)Nc2cccc(F)c2)n1`, for which the Kd was > 4 mM (inactive).

As to `c1cncc(C(N2CCOCC2)N2CCOCC2)c1`, the Kd was > 4 mM (inactive).

For the compound `O=[N+]([O-])c1cccc2c1nnn2C(CO)OCCO` (configuration not stated), the Kd is > 4 mM (inactive).

Consider `CSc1ccc(S(=O)(=O)N2CCCC2)cc1`, for which the Kd was > 4 mM (inactive).

For `COCC(=O)Nc1cc2c3c(c1)CCN3C(=O)CC2`, the Kd was > 4 mM (inactive).

As for `NC1=C(c2ccccc2)C(=O)c2ccccc21`, the Kd was > 4 mM (inactive).

As to `COc1ccc2c3c1O[C@H]1C[C@@H](O)C=C[C@@]31CCN(C)C2`, the Kd was > 4 mM (inactive).

For the compound `COc1cc(C(=S)N2CCC(C(N)=O)CC2)ccc1O`, the Kd is > 4 mM (inactive).

As to `CN(C)S(=O)(=O)c1ccc(N2CCOCC2)nc1`, the Kd was > 4 mM (inactive).

In the case of `c1ccc(-c2nsc(N3CCNCC3)n2)cc1`, the Kd is > 4 mM (inactive).

In the case of `COCCOc1nc2ccccc2nc1C`, the Kd is > 4 mM (inactive).

For the compound `O=C(CS(=O)(=O)c1ccccc1)N1CCCCCC1`, the Kd was > 4 mM (inactive).

For `Cn1c(=O)c2[nH]c(Nc3ccccc3)nc2n(C)c1=O`, the Kd was > 4 mM (inactive).

`COc1ccccc1NC(=O)c1cc[n+]([O-])cc1`: the Kd was > 4 mM (inactive).

Take `c1csc(-c2nn[nH]n2)c1`: the Kd is > 4 mM (inactive).

As for `CC(C)CCCC(C)[C@H]1CCC2C3CC=C4CC(=O)CC[C@]4(C)C3CC[C@@]21C` (some centres not stated), the Kd was > 4 mM (inactive).

Regarding `Cc1ccc2cccc(OC(=O)N3CCCC3)c2n1`, the Kd is > 4 mM (inactive).

Take `Cc1ccc(Nc2nc(N)nc(CC#N)n2)cc1`: the Kd was > 4 mM (inactive).

Regarding `O=c1c[n+]([O-])c2ccccc2n1OCc1ccccc1`, the Kd is > 4 mM (inactive).

Turning to `COC(=O)c1c(C)c2c(c(C)c1O)OC(=O)c1c(C)c(Cl)c(O)c(Cl)c1O2`, the Kd was > 4 mM (inactive).

Take `O=C(Nc1ccccc1)NC1CCS(=O)(=O)C1` (configuration not stated): the Kd is > 4 mM (inactive).

Take `O=C(Nc1ccc2c(c1)OCO2)c1c(F)cccc1F`: the Kd is > 4 mM (inactive).

As for `CCN1CCc2c(sc(N)c2C#N)C1`, the Kd is > 4 mM (inactive).

With `NCCCCN`, the Kd was > 4 mM (inactive).

With `O=C(O)CS(=O)(=O)c1ccccc1[N+](=O)[O-]`, the Kd was > 4 mM (inactive).

In the case of `Cn1nnc2cc(C(=O)NCc3ccco3)ccc21`, the Kd is > 4 mM (inactive).

`Cc1cc(C(=O)NC(C)c2ccncc2)cs1` (configuration not stated): the Kd is > 4 mM (inactive).

For the compound `O=C(O)c1ccc(-n2cncn2)cc1`, the Kd is > 4 mM (inactive).

For the compound `Cc1[nH]c(=O)[nH]c(=O)c1N1CCOCC1`, the Kd is > 4 mM (inactive).

Regarding `Cc1onc(-c2ccc(F)cc2)c1C(=O)O`, the Kd was > 4 mM (inactive).

As to `CN(c1ccccc1C(=O)N1CCCC1)S(C)(=O)=O`, the Kd is > 4 mM (inactive).

Take `Nc1ncnc2c1ncn2C1O[C@H](COP(=O)(O)O)[C@@H](O)[C@H]1O` (some centres not stated): the Kd was > 4 mM (inactive).

Consider `OCc1ccc(N2CCOCC2)cc1`, for which the Kd was > 4 mM (inactive).

On to `NC(=O)c1ccc(C(N)=O)cc1`, for which the Kd is > 4 mM (inactive).

In the case of `CCc1c(C)n([O-])c2c([n+]1=O)CCC2`, the Kd is > 4 mM (inactive).

Turning to `CN1CCCn2c1nc1c2c(=O)[nH]c(=O)n1C`, the Kd is > 4 mM (inactive).

As for `O=C(O)C1CNc2ccccc2O1` (configuration not stated), the Kd was > 4 mM (inactive).

Consider `O=C(C1CCC(C(=O)N2CCCC2)CC1)N1CCCC1` (configuration not stated), for which the Kd is > 4 mM (inactive).

`NC(=O)c1c(Cl)nsc1-c1ccccc1Cl`: the Kd is > 4 mM (inactive).

`CC(=O)c1cc(C)ccc1O`: the Kd was > 4 mM (inactive).

For the compound `Nc1ccc(Cc2ccncc2)cc1`, the Kd is > 4 mM (inactive).

As to `CC(CCC(=O)O)[C@H]1CCC2C3C[C@H](O)[C@@H]4C[C@H](O)CC[C@]4(C)C3CC[C@@]21C` (some centres not stated), the Kd was > 4 mM (inactive).

Take `Fc1ccc(CN2CCCNCC2)cc1`: the Kd is > 4 mM (inactive).

Consider `CCNC(=S)NS(=O)(=O)c1ccccc1`, for which the Kd is > 4 mM (inactive).

In the case of `Cn1ccnc1C(O)c1ccccc1` (configuration not stated), the Kd was > 4 mM (inactive).

For `Cc1cccc(NC(=O)c2ccccc2C(=O)O)c1`, the Kd is > 4 mM (inactive).
